These results are taken from US20090004145A1, “COMPOSITIONS AND METHODS INVOLVING GENE THERAPY AND PROTEASOME MODULATION” (priority 2006, published 2009).

Type in all cases: cell-based, human
Test [1] concerns proteasome activity in 2008/C*13 R cells. The test can be described thus: Proteasome activity assay (commercially available kit) on cell lysates. Particulars: 48 h.
Test [2] concerns MDA-7 protein in 2008/C*13 R cells. The test can be described thus: Western blotting of MDA-7 protein expression. To be noted: 48 h, vs Ad-mda7 alone. Here is the method:
FIG. 4. MDA-7 protein expression is increased in CDDP-Resistant Ovarian tumor cells in a time-dependent and dose-dependent manner. FIG. 4A, Ovarian tumor cells (2008 and 2008/C*13 R) seeded in six-well plates were treated with PBS, Ad-luc or Ad-mda7 (3000 vp/cell). Cells were harvested on day 1 and day 2 after treatment and analyzed for MDA-7 protein expression by western blotting. […] Beta-actin was used as an internal loading control. FIG. 4B, Ovarian tumor cells (2008 and 2008/C*13 R) seeded in six-well plates were treated with different doses of Ad-mda7 (1000, 3000, 5000 or 7500 vp/cell). Untreated cells served as control. Cells were harvested on day 2 after treatment and analyzed for MDA-7 protein expression by western blotting. […] Beta-actin was used as an internal loading control. […] However, MDA-7 protein was higher in the supernatant of Ad-mda7-treated 2008/C*13 R cells compared to Ad-mda7-treated 2008 cells.
FIG. 11. […]
MDA-7 Protein Expression is Increased in CDDP-Resistant Ovarian Tumor Cells in a Time-dependent and Dose-Dependent Manner. […] Cells were harvested on day 1 and day 2 after treatment and analyzed for MDA-7 protein expression by western blotting. […] Cells were harvested on day 2 after treatment and analyzed for MDA-7 protein expression by western blotting. […]
In general terms: In western blotting, separated proteins are transferred to a membrane and probed.

For test [3], the system named is MDA-7 protein in 2008 cells. Kind of test: Western blotting of MDA-7 protein expression. To be noted: 48 h, vs Ad-mda7 alone. Here is the method: FIG. 11. Inhibition of the proteasomal activity by MG132 results in increased ubiquitinated MDA-7 protein expression in CDDP-sensitive tumor cells but not in CDDP-resistant tumor cells. FIG. 11A, CDDP-resistant (2008/C*13 R) and sensitive (2008) ovarian tumor cells were plated in six-well plates and were treated with PBS, MG132, Ad-mda7, or Ad-mda7 plus MG132. At 48 h after treatment cells were harvested, lysates and supernatants prepared and subjected to MDA-7 and total ubiquitinated protein detection by western blotting and proteasome activity assay using commercially available kit. […] However, the MDA-7 protein was increased in 2008 cells when treated with MG132 plus Ad-mda7. […] FIG. 11B, CDDP-resistant (2008/C*13 R) and sensitive (2008) ovarian tumor cells were plated in six-well plates and were treated with PBS, MG132, Ad-p53, or Ad-p53 plus MG132. At 48 h after treatment cells were harvested, lysates and supernatants prepared and subjected to p53 protein detection by western blotting and proteasome activity using commercially available kit. […] However, the p53 protein was increased in 2008 cells when treated with MG132 plus Ad-p53.
FIG. 18. […] CDDP-sensitive (2008) ovarian tumor cells were plated in six-well plates. […]
FIG. 21. […] MDA-7 protein was detected in cells that were treated with Ad-mda7. […]

Where a SMILES comes first, the peptide text is derived from it. The star is where a group is joined. Cbz = O=C(OCc1ccccc1)*

Take `CC(C)C[C@@H](C=O)NC(=O)[C@H](CC(C)C)NC(=O)[C@H](CC(C)C)NC(=O)OCc1ccccc1` [MG132] (Cbz-Leu-Leu-Leu-aldehyde): the “inhibition of proteasome activity” value in test [1] (FIG. 11A (Ad-mda7 experiment)) and in test [1] (FIG. 11B (Ad-p53 experiment)) was 20% in each case. Further, the “MDA-7 protein expression with proteasome inhibitor” value in test [2] and in test [3] was “significantly increased” throughout.
